Measurements taken from patent publication US20110092476A1, “Bicycloheteroaryl compounds as P2X7 modulators and uses thereof” (Renovis, Inc., priority 2006, published 2011).

Target: T1, P2X7 receptor (Homo sapiens, UniProt Q99572)
T1 construct: host or cells: THP-1 cells differentiated with LPS and IFN-γ
T1 sequence (Q99572 1-595): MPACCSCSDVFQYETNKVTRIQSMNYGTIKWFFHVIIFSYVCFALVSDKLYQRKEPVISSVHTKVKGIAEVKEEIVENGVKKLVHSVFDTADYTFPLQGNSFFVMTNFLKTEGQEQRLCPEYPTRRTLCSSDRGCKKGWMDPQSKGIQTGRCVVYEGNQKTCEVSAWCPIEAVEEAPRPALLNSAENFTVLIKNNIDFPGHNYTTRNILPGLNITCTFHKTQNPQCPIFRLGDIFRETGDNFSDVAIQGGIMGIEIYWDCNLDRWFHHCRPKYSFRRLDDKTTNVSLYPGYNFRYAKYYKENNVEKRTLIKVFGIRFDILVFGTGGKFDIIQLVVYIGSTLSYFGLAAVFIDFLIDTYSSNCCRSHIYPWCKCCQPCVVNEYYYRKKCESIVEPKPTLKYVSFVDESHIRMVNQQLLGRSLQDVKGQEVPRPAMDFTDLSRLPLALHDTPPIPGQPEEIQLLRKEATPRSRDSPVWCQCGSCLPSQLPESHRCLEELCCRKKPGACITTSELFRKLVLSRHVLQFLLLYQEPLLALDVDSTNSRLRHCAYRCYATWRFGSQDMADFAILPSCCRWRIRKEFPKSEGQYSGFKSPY
Assay: IL-1β release assay in differentiated THP-1 cells stimulated with BzATP (Example 9)
Format: cell-based
Conditions: 0.1 μM compound (symbols *); differentiated THP-1 cells, BzATP 250 uM; read-out: IL-1β % Inhib. @ 0.3 or 0.1 uM
Method in brief: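 IC50 derived by four-parameter logistic fit of percent inhibition of IL-1β release (ELISA, background-adjusted). Release triggered by 45 min BzATP at 250 uM final after 30 min compound pretreatment of THP-1 cells previously differentiated 16 h (LPS, IFN-γ, 100 ng/mL each) and re-primed 2 h with LPS.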

`COc1ccc(OC)c(CC(=O)Nc2cccc3c(=O)n(C(C)CO)ccc23)c1` (stereo not shown) [Compound 108] and `Cc1ccc(C)c(C(=O)Nc2cccc3c(=O)n(C(C)CO)ccc23)c1` (stereo not shown) [Compound 100] fall in the same range of inhibition at 0.1 µM: 0 to 25% for the first, 0 to 25% for the second.

`COc1ccccc1CCC(=O)Nc1cccc2c(=O)n(CC(C)O)ccc12` (stereo not shown) [Compound 149] and `CC(O)Cn1ccc2c(NC(=O)Cc3ccccc3F)cccc2c1=O` (stereo not shown) [Compound 153] fall in the same range of inhibition at 0.1 µM: 0 to 25% for the first, 0 to 25% for the second.

First: CC(O)Cn1ccc2c(NC(=O)c3cccc4c3OCCO4)cccc2c1=O (stereo not shown) [Compound 170]
Second: Cc1cccc(C(=O)Nc2cccc3c(=O)n(CC(C)O)ccc23)c1 (stereo not shown) [Compound 144]
The inhibition at 0.1 µM of the first is higher: 26 to 50% for the first, 0 to 25% for the second.

`CCOc1cccc(C(=O)Nc2cccc3c(=O)n(CC(C)O)ccc23)c1` (stereo not shown) [Compound 132] and `CCOc1ccc(C(=O)Nc2cccc3c(=O)n(CC(C)O)ccc23)cc1` (stereo not shown) [Compound 145] fall in the same range of inhibition at 0.1 µM: 0 to 25% for the first, 0 to 25% for the second.

`COc1ccccc1CCC(=O)Nc1cccc2c(=O)n(CC3(O)CCCCC3)ccc12` [Compound 87] and `O=C(Cc1ccccc1Cl)Nc1cccc2c(=O)n(CC3(O)CCCCC3)ccc12` [Compound 88] fall in the same range of inhibition at 0.1 µM: 0 to 25% for the first, 0 to 25% for the second.

`CC(O)Cn1ccc2c(NC(=O)C(C)c3ccccc3)cccc2c1=O` (stereo not shown) [Compound 148] and `CC(O)Cn1ccc2c(NC(=O)c3ccc(-c4ccccc4)o3)cccc2c1=O` (stereo not shown) [Compound 127] fall in the same range of inhibition at 0.1 µM: 0 to 25% for the first, 0 to 25% for the second.

`COc1ccc(C(=O)Nc2cccc3c(=O)n(CC(C)O)ccc23)cc1Cl` (stereo not shown) [Compound 131] and `Cc1ccc(C(=O)Nc2cccc3c(=O)n(CC(C)O)ccc23)cc1Cl` (stereo not shown) [Compound 168] fall in the same range of inhibition at 0.1 µM: 0 to 25% for the first, 0 to 25% for the second.

First: Cc1c(Cl)cccc1C(=O)Nc1cccc2c(=O)n(C(C)CO)ccc12 (stereo not shown) [Compound 118]
Second: Cc1cccc(C(=O)Nc2cccc3c(=O)n(C(C)CO)ccc23)c1C (stereo not shown) [Compound 98]
The inhibition at 0.1 µM of the first is higher: 26 to 50% for the first, 0 to 25% for the second.

`Cc1cccc(CC(=O)Nc2cccc3c(=O)n(CC(C)O)ccc23)c1` (stereo not shown) [Compound 159] and `Cc1ccc(CCC(=O)Nc2cccc3c(=O)n(CC(C)O)ccc23)c(C)c1` (stereo not shown) [Compound 184] fall in the same range of inhibition at 0.1 µM: 0 to 25% for the first, 0 to 25% for the second.

`Cc1ccc(Cl)cc1C(=O)Nc1cccc2c(=O)n(C(C)CO)ccc12` (stereo not shown) [Compound 122] and `CC(CO)n1ccc2c(NC(=O)c3ccc(-c4ccccc4)cc3)cccc2c1=O` (stereo not shown) [Compound 102] fall in the same range of inhibition at 0.1 µM: 0 to 25% for the first, 0 to 25% for the second.

`COc1c(C)cc(C(=O)Nc2cccc3c(=O)n(CC(C)O)ccc23)cc1C` (stereo not shown) [Compound 167] and `COc1cc(OC)cc(C(=O)Nc2cccc3c(=O)n(CC(C)O)ccc23)c1` (stereo not shown) [Compound 143] fall in the same range of inhibition at 0.1 µM: 0 to 25% for the first, 0 to 25% for the second.

`Cc1cc(C(=O)Nc2cccc3c(=O)n(CC(C)(C)O)ccc23)ccc1Cl` [Compound 196] and `CC(C)(O)Cn1ccc2c(NC(=O)CCc3ccc4c(c3)OCO4)cccc2c1=O` [Compound 195] fall in the same range of inhibition at 0.1 µM: 0 to 25% for the first, 0 to 25% for the second.

`CCOc1ccc(C(=O)Nc2cccc3c(=O)n(CC(C)O)ccc23)c(O)c1` (stereo not shown) [Compound 124] and `O=C(Nc1cccc2c(=O)n(CC3(O)CCCCC3)ccc12)c1ccc(-c2ccccc2)cc1` [Compound 22] fall in the same range of inhibition at 0.1 µM: 0 to 25% for the first, 0 to 25% for the second.

Same assay, conditions: 0.1 μM compound; differentiated THP-1 cells, BzATP 250 uM; "*" symbols; read-out: IL-1β % Inhib. @ 0.3 or 0.1 uM

`CC(C)(O)Cn1ccc2c(NC(=O)Cc3cccc4ccccc34)cccc2c1=O` [Compound 205] and `CC(C)(O)Cn1ccc2c(NC(=O)c3cc4ccccc4o3)cccc2c1=O` [Compound 217] fall in the same range of inhibition at 0.1 µM: 0 to 25% for the first, 0 to 25% for the second.

Same assay, conditions: 0.3 μM compound (symbols +); differentiated THP-1 cells, BzATP 250 uM; read-out: IL-1β % Inhib. @ 0.3 or 0.1 uM

First: O=C(Cc1ccc(C(F)(F)F)cc1)Nc1cccc2c1CCN(CCO)C2=O [Compound 60]
Second: COc1ccc(CC(=O)Nc2cccc3c(=O)n(CC4(O)CCCCC4)ccc23)cc1 [Compound 33]
The inhibition at 0.3 µM of the first is higher: 26 to 50% for the first, 0 to 25% for the second.

`CCOc1ccccc1CC(=O)Nc1cccc2c(=O)n(CC3(O)CCCCC3)ccc12` [Compound 50] and `O=C(Cc1cccc2ccccc12)Nc1cccc2c(=O)n(CC3(O)CCCCC3)ccc12` [Compound 26] fall in the same range of inhibition at 0.3 µM: 0 to 25% for the first, 0 to 25% for the second.

Compared with `O=C(Cc1ccc(Cl)cc1Cl)Nc1cccc2c(=O)n(C(CO)CO)ccc12` [Compound 82], `O=C(Cc1ccc2c(c1)OCO2)Nc1cccc2c(=O)n(CC3(O)CCCCC3)ccc12` [Compound 38] is lower in inhibition at 0.3 µM: 51 to 75% for the first, 0 to 25% for the second.

Same assay, conditions: 0.3 μM compound; differentiated THP-1 cells, BzATP 250 uM; "+" symbols; read-out: IL-1β % Inhib. @ 0.3 or 0.1 uM

`O=C(Cc1ccc(Cl)c(Cl)c1)Nc1cccc2c(=O)n(C[C@H]3CCCN3)ccc12` [Compound 245] and `O=C(Cc1ccc(Cl)c(C(F)(F)F)c1)Nc1cccc2c(=O)n(C[C@H]3CCCN3)ccc12` [Compound 243] cannot be ordered by inhibition at 0.3 µM: > 76% for the first, > 76% for the second.

First: O=C(Cc1ccc(Cl)cc1C(F)(F)F)Nc1cccc2c(=O)n(C(CO)CO)ccc12 [Compound 228]
Second: C[C@@H](CO)n1ccc2c(NC(=O)Cc3ccc(C(F)(F)F)c(F)c3)cccc2c1=O [Compound 336]
The inhibition at 0.3 µM of the first is lower: 51 to 75% for the first, > 76% for the second.

`C[C@@H](CO)n1ccc2c(NC(=O)Cc3ccc(C(F)(F)F)cc3)cccc2c1=O` [Compound 318] and `C[C@@H](CO)n1ccc2c(NC(=O)Cc3ccc(Cl)c(F)c3)cccc2c1=O` [Compound 334] fall in the same range of inhibition at 0.3 µM: 51 to 75% for the first, 51 to 75% for the second.

First: O=C(Cc1ccc(Cl)c(Cl)c1)Nc1c(Cl)ccc2c(=O)n(CCO)ccc12 [Compound 248]
Second: O=C(Cc1cccc(C(F)(F)F)c1F)Nc1c(Cl)ccc2c(=O)n(CCO)ccc12 [Compound 387]
The inhibition at 0.3 µM of the first is lower: 0 to 25% for the first, > 76% for the second.

`Cc1ccc(CC(=O)Nc2cccc3c(=O)n([C@H](C)C(N)=O)ccc23)cc1F` [Compound 302] and `C[C@@H](C(N)=O)n1ccc2c(NC(=O)Cc3ccc(Cl)c(F)c3)cccc2c1=O` [Compound 352] cannot be ordered by inhibition at 0.3 µM: > 76% for the first, > 76% for the second.

Compared with `C[C@H](CO)n1ccc2c(NC(=O)Cc3ccc(Cl)cc3F)cccc2c1=O` [Compound 327], `C[C@@H](CO)n1ccc2c(NC(=O)Cc3ccc(F)c(Cl)c3)cccc2c1=O` [Compound 331] is lower in inhibition at 0.3 µM: > 76% for the first, 51 to 75% for the second.

First: CC(C(=O)Nc1cccc2c(=O)n(CCO)ccc12)c1ccc(Cl)cc1 (stereo not shown) [Compound 244]
Second: CC(C(=O)Nc1cccc2c(=O)n(C[C@@H]3CCCN3)ccc12)c1ccc(Cl)cc1 (stereo partly shown) [Compound 246]
The inhibition at 0.3 µM of the first is lower: 26 to 50% for the first, 51 to 75% for the second.

`C[C@H](C(N)=O)n1ccc2c(NC(=O)Cc3ccc(C(F)(F)F)cc3F)cccc2c1=O` [Compound 296] and `C[C@H](C(N)=O)n1ccc2c(NC(=O)Cc3ccc(C(F)(F)F)cc3C(F)(F)F)cccc2c1=O` [Compound 380] cannot be ordered by inhibition at 0.3 µM: > 76% for the first, > 76% for the second.

First: C[C@H](C(N)=O)n1ccc2c(NC(=O)Cc3cccc(OC(F)(F)F)c3)cccc2c1=O [Compound 313]
Second: C[C@@H](C(N)=O)n1ccc2c(NC(=O)Cc3cccc(C(F)(F)F)c3F)cccc2c1=O [Compound 349]
The inhibition at 0.3 µM of the first is lower: 0 to 25% for the first, > 76% for the second.

Compared with `CC(=O)NCCn1ccc2c(NC(=O)Cc3ccc(C(F)(F)F)c(F)c3)cccc2c1=O` [Compound 390], `CC(C)(CO)n1ccc2c(NC(=O)Cc3ccc(F)c(C(F)(F)F)c3)cccc2c1=O` [Compound 367] is higher in inhibition at 0.3 µM: 0 to 25% for the first, > 76% for the second.

`C[C@H](C(N)=O)n1ccc2c(NC(=O)Cc3ccc(Cl)c(Cl)c3)cccc2c1=O` [Compound 239] and `C[C@@H](CO)n1ccc2c(NC(=O)Cc3ccc(Cl)c(Cl)c3)cccc2c1=O` [Compound 332] cannot be ordered by inhibition at 0.3 µM: > 76% for the first, > 76% for the second.

`O=C(Cc1ccc(C(F)(F)F)cc1C(F)(F)F)Nc1cccc2c(=O)n(CCO)ccc12` [Compound 230] and `C[C@H](C(N)=O)n1ccc2c(NC(=O)Cc3ccc(Cl)cc3Cl)cccc2c1=O` [Compound 314] cannot be ordered by inhibition at 0.3 µM: > 76% for the first, > 76% for the second.

`CC(C(=O)Nc1cccc2c(=O)n([C@@H](C)C(N)=O)ccc12)c1ccc(Cl)cc1` (stereo partly shown) [Compound 240] and `CC(C)[C@H](C(=O)NC1CC1)n1ccc2c(NC(=O)[C@H](C)c3ccc(Cl)cc3)cccc2c1=O` [Compound 282] cannot be ordered by inhibition at 0.3 µM: > 76% for the first, > 76% for the second.

Compared with `CC(C(=O)Nc1cccc2c(=O)n([C@@H](C)C(N)=O)ccc12)c1cccc(C(F)(F)F)c1F` (stereo partly shown) [Compound 355], `C[C@H](C(N)=O)n1ccc2c(NC(=O)Cc3c(F)cccc3F)cccc2c1=O` [Compound 292] is lower in inhibition at 0.3 µM: > 76% for the first, 0 to 25% for the second.

`C[C@H](C(N)=O)n1ccc2c(NC(=O)c3cccc4ncccc34)cccc2c1=O` [Compound 272] and `C[C@@H](C(N)=O)n1ccc2c(NC(=O)Cc3ccc(Cl)nc3)cccc2c1=O` [Compound 310] fall in the same range of inhibition at 0.3 µM: 0 to 25% for the first, 0 to 25% for the second.

`CC(C)(CO)n1ccc2c(NC(=O)Cc3ccc(Cl)c(Cl)c3)cccc2c1=O` [Compound 371] and `NCC(CCl)Cn1ccc2c(NC(=O)Cc3ccc(Cl)c(Cl)c3)cccc2c1=O` (stereo not shown) [Compound 259] fall in the same range of inhibition at 0.3 µM: 51 to 75% for the first, 51 to 75% for the second.

Same assay, conditions: THP-1 cells, BzATP 250 uM, IL-1β by ELISA

For `CC(=O)NCCn1ccc2c(NC(=O)Cc3ccc(C(F)(F)F)c(F)c3)cccc2c1=O` [Compound 390], the IC50 was > 1000 nM.
